The source of these data is ChEMBL document CHEMBL3045122, “Synthesis, in vitro antimicrobial, antiproliferative, and QSAR studies of N-(substituted phenyl)-2/4-(1H-indol-3-ylazo)-benzamides” (Med Chem Res, 2013).

The structures appear in SMILES notation.

One assay deals with HCT-116. In words: Cytotoxicity against Homo sapiens (human) HCT116 cells assessed as growth inhibition after 72 hr by MTT assay. The assay is classed as functional, cell-based.
Assay [1] concerns Aspergillus niger. In words: Ratio of MFC to MIC for Aspergillus niger. The assay is classed as functional.
The next assay has as its system MCF7. In words: Cytotoxicity against Homo sapiens (human) MCF7 cells assessed as growth inhibition after 72 hr by MTT assay. The format is functional, cell-based.
Assay [2] relates to Candida albicans. In words: Ratio of MFC to MIC for Candida albicans. The format is functional.
Assay [3] deals with Escherichia coli. In words: Ratio of MBC to MIC for Escherichia coli. The assay is classed as functional.
In assay [4] the test system is Bacillus subtilis. In words: Ratio of MBC to MIC for Bacillus subtilis. The format is functional.
Assay [5] concerns Staphylococcus aureus. In words: Ratio of MBC to MIC for Staphylococcus aureus. The assay is classed as functional.
The test system of assay [6] is Aspergillus niger. In words: Fungicidal activity against Aspergillus niger. The assay is classed as functional.
Assay [7] relates to Candida albicans. In words: Fungicidal activity against Candida albicans. The assay is classed as functional.
The test system of assay [8] is Escherichia coli. In words: Bactericidal activity against Escherichia coli. The format is functional.
Assay [9] has as its system Bacillus subtilis. In words: Bactericidal activity against Bacillus subtilis. The format is functional.
Assay [10] concerns Staphylococcus aureus. In words: Bactericidal activity against Staphylococcus aureus. The assay is classed as functional.
For assay [11], the system named is Aspergillus niger. In words: Antifungal activity against Aspergillus niger assessed as growth inhibition after 7 days by tube dilution method. The assay is classed as functional.
Assay [12] has as its system Escherichia coli. In words: Antibacterial activity against Escherichia coli assessed as growth inhibition after 24 hr by tube dilution method. The assay is classed as functional.
For assay [13], the system named is Candida albicans. In words: Antifungal activity against Candida albicans assessed as growth inhibition after 48 hr by tube dilution method. The assay is classed as functional.
Assay [14] has as its system Bacillus subtilis. In words: Antibacterial activity against Bacillus subtilis assessed as growth inhibition after 24 hr by tube dilution method. The format is functional.
The test system of assay [15] is Staphylococcus aureus. In words: Antibacterial activity against Staphylococcus aureus assessed as growth inhibition after 24 hr by tube dilution method. The format is functional.

For the molecule `O=C(Nc1ccccc1Cl)c1ccccc1/N=N\c1c[nH]c2ccccc12`, the IC50 with HCT-116 was determined as 0.24 uM/ml; with MCF7, 0.1067 uM/ml. Further, the Ratio in the assay on Aspergillus niger [1], in the assay with Candida albicans [2], in the assay with Escherichia coli [3], in the assay with Bacillus subtilis [4] and in the assay on Staphylococcus aureus [5] was 3 in each case. Also, the MFC against Aspergillus niger [6] is 0.03 uM/ml; in the assay on Candida albicans [7] it was over 0.13 uM/ml. Besides, the MBC in the assay with Escherichia coli [8], in the assay with Bacillus subtilis [9] and in the assay with Staphylococcus aureus [10] was over 0.13 uM/ml in each case. Further, the “-logMIC” value in the assay on Aspergillus niger [11] is recorded as 1.48; in the assay on Escherichia coli [12] it was 1.48; in the assay with Candida albicans [13] it was 1.48; in the assay on Bacillus subtilis [14], 1.48; with Staphylococcus aureus [15], 1.18.
For `Cc1cccc(NC(=O)c2ccccc2/N=N\c2c[nH]c3ccccc23)c1`, the IC50 with HCT-116 is recorded as 0.1695 uM/ml; with MCF7, 0.1271 uM/ml. Further, the Ratio in the assay with Aspergillus niger [1], in the assay with Candida albicans [2], in the assay on Escherichia coli [3], in the assay on Bacillus subtilis [4] and with Staphylococcus aureus [5] was 3 throughout. Moreover, the MFC against Aspergillus niger [6] was 0.04 uM/ml; with Candida albicans [7], over 0.14 uM/ml. The MBC against Escherichia coli [8], against Bacillus subtilis [9] and in the assay on Staphylococcus aureus [10] was over 0.14 uM/ml each time. The “-logMIC” value was found to be 1.45 with Aspergillus niger [11]; 1.75 in the assay on Escherichia coli [12]; 1.45 in the assay on Candida albicans [13]; 1.75 in the assay with Bacillus subtilis [14]; 1.45 with Staphylococcus aureus [15].
Take `Cc1ccccc1NC(=O)c1ccccc1/N=N\c1c[nH]c2ccccc12`: the IC50 with HCT-116 turned out to be 1.1299 uM/ml; with MCF7, 0.1412 uM/ml. In addition, the Ratio with Aspergillus niger [1], with Candida albicans [2], with Escherichia coli [3], in the assay with Bacillus subtilis [4] and in the assay on Staphylococcus aureus [5] was 3 in each case. In addition, the MFC against Aspergillus niger [6] was 0.04 uM/ml; with Candida albicans [7], over 0.14 uM/ml. The MBC in the assay with Escherichia coli [8], in the assay on Bacillus subtilis [9] and against Staphylococcus aureus [10] was over 0.14 uM/ml throughout. Besides, the “-logMIC” value in the assay with Aspergillus niger [11] was found to be 1.45; with Escherichia coli [12], 1.45; with Candida albicans [13], 1.45; in the assay with Bacillus subtilis [14], 1.45; with Staphylococcus aureus [15], 1.15.
Take `OC(Cn1cncn1)(Cn1cncn1)c1ccc(F)cc1F` [FLUCONAZOLE]: the Ratio with Aspergillus niger [1] and in the assay with Candida albicans [2] was 3 each time. Also, the MFC in the assay on Aspergillus niger [6] and with Candida albicans [7] was 0.04 uM/ml each time. Further, the “-logMIC” value in the assay on Aspergillus niger [11] and in the assay with Candida albicans [13] was 2.64 in each case.
Turning to `O=C(Nc1ccccc1)c1ccccc1/N=N\c1c[nH]c2ccccc12`, the figures for the IC50 in the assay on HCT-116 and in the assay with MCF7 were 0.2353 uM/ml and 0.0882 uM/ml, respectively. The Ratio in the assay with Aspergillus niger [1], in the assay on Candida albicans [2], with Escherichia coli [3], in the assay with Bacillus subtilis [4] and in the assay with Staphylococcus aureus [5] was 3 each time. In addition, the results for the MFC in the assay with Aspergillus niger [6] and in the assay on Candida albicans [7] were 0.04 uM/ml and over 0.15 uM/ml, respectively. In addition, the MBC with Escherichia coli [8], in the assay on Bacillus subtilis [9] and in the assay on Staphylococcus aureus [10] was over 0.15 uM/ml in each case. In addition, the “-logMIC” value in the assay on Aspergillus niger [11] worked out at 1.44; in the assay with Escherichia coli [12], 1.74; in the assay on Candida albicans [13] it was 1.44; in the assay with Bacillus subtilis [14], 1.74; in the assay on Staphylococcus aureus [15], 1.13.
Take `O=C(Nc1ccccc1F)c1ccccc1/N=N\c1c[nH]c2ccccc12`: the IC50 in the assay on HCT-116 is recorded as 0.2235 uM/ml; with MCF7, 0.1397 uM/ml. The Ratio in the assay with Aspergillus niger [1], with Candida albicans [2], with Escherichia coli [3], with Bacillus subtilis [4] and in the assay on Staphylococcus aureus [5] was 3 throughout. Moreover, the results for the MFC against Aspergillus niger [6] and against Candida albicans [7] were 0.03 uM/ml and over 0.14 uM/ml, respectively. The MBC against Escherichia coli [8], against Bacillus subtilis [9] and in the assay with Staphylococcus aureus [10] was over 0.14 uM/ml throughout. For the same molecule, the “-logMIC” value stood at 1.46 in the assay on Aspergillus niger [11]; 1.76 in the assay with Escherichia coli [12]; 1.46 with Candida albicans [13]; 1.46 with Bacillus subtilis [14]; 1.16 with Staphylococcus aureus [15].
Take `Cc1cccc(NC(=O)c2ccccc2/N=N\c2c[nH]c3ccccc23)c1C`: the IC50 in the assay on HCT-116 was found to be 0.3533 uM/ml; in the assay on MCF7, 0.1087 uM/ml. Moreover, the Ratio in the assay on Aspergillus niger [1], in the assay on Candida albicans [2], in the assay on Escherichia coli [3], with Bacillus subtilis [4] and in the assay on Staphylococcus aureus [5] was 3 each time. The MFC in the assay with Aspergillus niger [6] was 0.03 uM/ml; against Candida albicans [7], over 0.14 uM/ml. Also, the MBC in the assay on Escherichia coli [8], against Bacillus subtilis [9] and against Staphylococcus aureus [10] was over 0.14 uM/ml in each case. The “-logMIC” value turned out to be 1.47 in the assay with Aspergillus niger [11]; 1.77 with Escherichia coli [12]; 1.47 in the assay on Candida albicans [13]; 1.47 in the assay with Bacillus subtilis [14]; 1.17 in the assay with Staphylococcus aureus [15].
Regarding `Cc1ccc(NC(=O)c2ccccc2/N=N\c2c[nH]c3ccccc23)cc1`, the IC50 is on record as 0.452 uM/ml in the assay on HCT-116 and 0.0791 uM/ml with MCF7. For the same molecule, the Ratio with Aspergillus niger [1], in the assay on Candida albicans [2], in the assay on Escherichia coli [3], in the assay with Bacillus subtilis [4] and in the assay on Staphylococcus aureus [5] was 3 each time. Further, the MFC is reported as 0.04 uM/ml with Aspergillus niger [6] and over 0.14 uM/ml against Candida albicans [7]. Besides, the MBC in the assay with Escherichia coli [8], in the assay with Bacillus subtilis [9] and with Staphylococcus aureus [10] was over 0.14 uM/ml each time. Also, the “-logMIC” value was determined as 1.45 in the assay with Aspergillus niger [11]; 1.45 with Escherichia coli [12]; 1.45 with Candida albicans [13]; 1.45 in the assay on Bacillus subtilis [14]; 1.15 in the assay on Staphylococcus aureus [15].
On to `Cc1ccc(NC(=O)c2ccccc2/N=N\c2c[nH]c3ccccc23)c(C)c1`, for which the IC50 with HCT-116 is recorded as 0.0815 uM/ml; in the assay on MCF7, 0.1087 uM/ml. Besides, the Ratio with Aspergillus niger [1], in the assay with Candida albicans [2], with Escherichia coli [3], with Bacillus subtilis [4] and in the assay on Staphylococcus aureus [5] was 3 in each case. Moreover, the results for the MFC in the assay with Aspergillus niger [6] and in the assay with Candida albicans [7] were 0.03 uM/ml and over 0.14 uM/ml, respectively. The MBC with Escherichia coli [8], against Bacillus subtilis [9] and against Staphylococcus aureus [10] was over 0.14 uM/ml in each case. Further, the “-logMIC” value was 1.47 in the assay with Aspergillus niger [11]; 1.47 in the assay on Escherichia coli [12]; 1.47 in the assay with Candida albicans [13]; 1.47 in the assay with Bacillus subtilis [14]; 1.17 in the assay with Staphylococcus aureus [15].
For `O=C(Nc1cccc(Cl)c1)c1ccccc1/N=N\c1c[nH]c2ccccc12`, the IC50 with HCT-116 is 0.2933 uM/ml; in the assay with MCF7 it was 0.1067 uM/ml. The Ratio in the assay with Aspergillus niger [1], in the assay with Candida albicans [2], with Escherichia coli [3], in the assay with Bacillus subtilis [4] and in the assay with Staphylococcus aureus [5] was 3 each time. Also, the values for the MFC against Aspergillus niger [6] and against Candida albicans [7] were 0.03 uM/ml and over 0.13 uM/ml, respectively. Also, the MBC with Escherichia coli [8], against Bacillus subtilis [9] and in the assay with Staphylococcus aureus [10] was over 0.13 uM/ml throughout. Besides, the “-logMIC” value worked out at 1.48 with Aspergillus niger [11]; 1.78 in the assay with Escherichia coli [12]; 1.48 with Candida albicans [13]; 1.48 in the assay on Bacillus subtilis [14]; 1.18 with Staphylococcus aureus [15].
For `O=C(Nc1ccc(Cl)cc1)c1ccccc1/N=N\c1c[nH]c2ccccc12`, the values for the IC50 in the assay on HCT-116 and in the assay on MCF7 were 0.3467 uM/ml and 0.1067 uM/ml, respectively. Also, the Ratio in the assay on Aspergillus niger [1], with Candida albicans [2], in the assay on Escherichia coli [3], in the assay with Bacillus subtilis [4] and in the assay with Staphylococcus aureus [5] was 3 throughout. In addition, the results for the MFC in the assay on Aspergillus niger [6] and in the assay on Candida albicans [7] were 0.03 uM/ml and over 0.13 uM/ml, respectively. Also, the MBC in the assay with Escherichia coli [8], against Bacillus subtilis [9] and against Staphylococcus aureus [10] was over 0.13 uM/ml in each case. Besides, the “-logMIC” value with Aspergillus niger [11] was 1.48; in the assay on Escherichia coli [12], 1.48; in the assay on Candida albicans [13], 1.48; with Bacillus subtilis [14], 1.48; in the assay on Staphylococcus aureus [15], 1.18.
Turning to `Cc1ccc(C)c(NC(=O)c2ccccc2/N=N\c2c[nH]c3ccccc23)c1`, the IC50 in the assay on HCT-116 is 0.163 uM/ml; in the assay on MCF7 it was 0.1087 uM/ml. In addition, the Ratio in the assay on Aspergillus niger [1], in the assay with Candida albicans [2], in the assay with Escherichia coli [3], with Bacillus subtilis [4] and in the assay on Staphylococcus aureus [5] was 3 each time. In addition, the values for the MFC with Aspergillus niger [6] and against Candida albicans [7] were 0.03 uM/ml and over 0.14 uM/ml, respectively. Also, the MBC with Escherichia coli [8], in the assay on Bacillus subtilis [9] and with Staphylococcus aureus [10] was over 0.14 uM/ml throughout. The “-logMIC” value came out at 1.47 with Aspergillus niger [11]; 1.47 in the assay on Escherichia coli [12]; 1.47 in the assay on Candida albicans [13]; 1.77 in the assay on Bacillus subtilis [14]; 1.17 in the assay on Staphylococcus aureus [15].
Consider `CCn1cc(C(=O)O)c(=O)c2cc(F)c(N3CCNCC3)cc21` [NORFLOXACIN], for which the Ratio in the assay with Escherichia coli [3], with Bacillus subtilis [4] and in the assay on Staphylococcus aureus [5] was 3 throughout. In addition, the MBC in the assay with Escherichia coli [8], against Bacillus subtilis [9] and against Staphylococcus aureus [10] was 0.019 uM/ml throughout. The “-logMIC” value in the assay on Escherichia coli [12], with Bacillus subtilis [14] and with Staphylococcus aureus [15] was 2.61 in each case.
